The record followed here is article PMC7343212, “Lactoferrin-Hexon Interactions Mediate CAR-Independent Adenovirus Infection of Human Respiratory Cells” (Journal of Virology, 2020).

Experiment [1] has as its target T1, HAdV-C5 hexon (Human adenovirus C serotype 5, UniProt P04133).
T1 construct: the top phase containing soluble viral components was recovered, and HAdV hexons were purified using monoclonal hexon antibodies; made in house; host or cells: A549 cells infected with wild-type HAdV-C5 (strain Ad75)
Briefly: Surface plasmon resonance, HAdV-C5 hexon immobilized. In kind it is binding. The settings on record: SPR Biacore T200, HAdV-C5 hexon on CM5 chip, analyte hLfcin1-49, 2-fold series 8 nM to 2 μM, HBS-EP+ pH 7.4, 25°C; average from three independent measurements. The procedure:
Ten flasks of 70% confluent A549 cells were infected with HAdV-C5, HAdV-A31, or HAdV-B35. After initial inoculation, unbound virus was washed away, and approximately 30 ml of fresh medium (DMEM plus 20 mM HEPES [N-2-hydroxyethylpiperazine-NN-2-ethanesulfonic acid] plus 5% FBS) was added. At 48 h after infection, the cells were harvested by scraping into a small volume of DMEM, centrifuged, and resuspended in 6 ml of DMEM. The collected cells were lysed and the sample cleared by centrifugation. Virus was separated from soluble viral components by a CsCl gradient, as described previously ([59]). After ultracentrifugation, the top phase containing soluble viral components was recovered, and HAdV hexons were purified using monoclonal hexon antibodies (MAB8052) covalently attached to magnetic protein A/G beads (Pierce) using dimethyl pimelimidate (DMP) according to the manufacturer’s instructions. Bound hexons were washed three times using PBS to remove protein bound unspecifically, followed by elution in 50 μl of 200 mM glycine buffer at pH 2.5.
CM5 sensor chips, an amine-coupling kit, and HBS-EP+ buffer (10 mM HEPES, 150 mM NaCl, 3 mM EDTA, and 0.005% [vol/vol] surfactant P20 [pH 7.4]) were all purchased from GE Healthcare. All surface plasmon resonance (SPR) experiments were performed at 25°C in HBS-EP+ running buffer with adenovirus hexons immobilized on the sensor surface. […]
On the technique in general: In SPR one partner is held on a chip, and binding of the other changes the refractive index at the surface.

Experiment [2] deals with human respiratory epithelial A549 cells (HAdV-C5_GFP). The experiment is described as follows: HAdV-C5_GFP transduction of A549 cells. In kind it is cell-based. The settings on record: at this concentration (2 μM), Fig. 1D. The text has this: For all transduction experiments, GFP-expressing vectors were used. The HAdV_GFP vector was purchased from Vector Development Laboratory. All mutated HAdV-C5 vectors were generated in the laboratory of A. Plückthun at the University of Zürich using the AdEasy system (Agilent) to contain an internal ribosome entry site (IRES)-luciferase (Luc)-GFP cassette for detection of transduction. To investigate the role of integrins in transduction, HAdV-C5-IRES-GFP with an intact RGD loop in the penton base protein (-DMNDHAIRGDTFATRAE-) and HAdV-C5-ΔRGD-IRES-GFP (-DMNDTSRAEEKRAE-), known not to bind integrins ([40]), were generated. To determine the binding site for hLF/hLfcin on the hexon protein, hexon-mutated vectors were produced with HVR-1 of HAdV-C5 ([43]) replaced with the corresponding sequence of HAdV-A31, as well as a HAdV-C5 vector mutated in HVR-7 ([44]).
For experiments in A549 cells, 15,000 cells were seeded into a black 96-well plate with a transparent bottom. For experiments with CHO-K1 cells, 20,000 cells were seeded. After 24 h, HAdV-C5 vectors was complexed with 2 μM Lfcin or with ∼12 μM (1 mg/ml) of LF and, after 60 min, added to the cells on ice. The blocking of CAR using soluble HAdV-C5 fiber knob was performed using 10 μg/ml of recombinant knob. After another 60 min, unbound complex was washed away using Dulbecco’s modified Eagle’s medium (DMEM), followed by final addition of fresh medium. After 44 h, the cells were fixed using 4% paraformaldehyde (PFA) for 10 min, and GFP expression was imaged using a Trophos system (Luminy Biotech Entreprises). For the hexon chimeric viruses, transduction was instead quantified by measuring the luciferase activity at 44 h postinfection using a Pierce luciferase glow assay kit.

Experiment [3] deals with A549 cells (HAdV-C5 virions). Briefly: 35S-labeled HAdV-C5 virion binding to A549 cells. Type of experiment: cell-based, Human. The settings on record: at this concentration (2 μM), Fig. 1C. The protocol: A549 cells were detached using phosphate-buffered saline (PBS) plus 0.05% EDTA with slow rocking at 37°C. Once detached, the cells were centrifuged at 1,500 × g for 5 min, resuspended in growth medium to about 2 × 10^6 cells/ml, and allowed to recover at 37°C, slowly rocking to keep the cells in suspension. While recovering, the HAdV-Lfcin complex was set up. Lfcin (2 μM), or an equivalent volume of PBS, was mixed with ^35S-labeled HAdV (15,000 particles/cell) in medium and left on ice at 4°C for 60 min. After 60 min of recovery, the cells were counted, and 150,000 viable cells were added to each well of a 96-V-shaped-well plate and centrifuged for 5 min at 1,500 × g. Once pelleted, the cells were resuspended in the HAdV-Lfcin solution or in HAdV-PBS solution and incubated on ice for 60 min at 4°C. After 60 min, the cells were pelleted and washed once in medium and once in PBS before the addition of scintillation fluid and quantification using a Wallac 1450 Microbeta counter (Trilux).

Bridges are numbered along the chain shown (N, C = ends). Where no end group is shown, it is not given here.

T1 sequence (P04133 2-952 limits assumed): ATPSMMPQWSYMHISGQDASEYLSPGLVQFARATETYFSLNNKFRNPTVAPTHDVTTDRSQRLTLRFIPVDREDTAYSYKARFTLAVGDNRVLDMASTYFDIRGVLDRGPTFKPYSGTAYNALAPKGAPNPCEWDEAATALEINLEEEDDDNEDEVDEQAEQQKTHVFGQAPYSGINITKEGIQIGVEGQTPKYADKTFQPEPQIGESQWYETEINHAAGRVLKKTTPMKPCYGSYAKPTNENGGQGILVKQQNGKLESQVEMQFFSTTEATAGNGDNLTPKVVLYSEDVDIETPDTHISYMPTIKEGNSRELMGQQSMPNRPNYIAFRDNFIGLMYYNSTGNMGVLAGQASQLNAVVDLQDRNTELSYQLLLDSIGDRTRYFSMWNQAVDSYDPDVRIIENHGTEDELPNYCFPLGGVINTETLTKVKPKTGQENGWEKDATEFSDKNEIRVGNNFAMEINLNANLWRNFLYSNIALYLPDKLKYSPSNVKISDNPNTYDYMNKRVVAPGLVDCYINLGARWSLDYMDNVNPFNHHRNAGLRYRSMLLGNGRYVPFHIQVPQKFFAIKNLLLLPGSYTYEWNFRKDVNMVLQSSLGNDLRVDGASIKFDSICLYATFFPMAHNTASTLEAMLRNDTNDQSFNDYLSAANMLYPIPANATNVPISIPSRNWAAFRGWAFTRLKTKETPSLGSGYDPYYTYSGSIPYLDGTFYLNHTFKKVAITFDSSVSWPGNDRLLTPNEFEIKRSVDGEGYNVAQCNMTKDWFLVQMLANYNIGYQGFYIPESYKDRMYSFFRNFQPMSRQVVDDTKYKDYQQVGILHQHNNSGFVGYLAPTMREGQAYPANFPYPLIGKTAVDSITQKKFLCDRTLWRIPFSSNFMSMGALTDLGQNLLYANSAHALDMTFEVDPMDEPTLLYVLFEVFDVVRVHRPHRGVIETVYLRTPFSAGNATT

On to “GRRRRSVQWCAVSQPEATKCFQWQRNMRKVRGPPVSCIKRDSPIQCIQA (disulfide 10-46, 20-37) [hLfcin1-49, human lactoferricin]”, for which binding in experiment [1] was put at a Kd of 730 ± 206 nM. For “bLfcin17-31: bovine lactoferricin 17-31, standard solid-phase peptide synthesis (FKCRRWQWRMKKLGA; UniProt P24627 36-50, looked up, fragment) [reference compound]”, in experiment [2], the “effect on HAdV-C5 transduction of A549 cells (in words)” value (shortened to “effect on HAdV-C5 transduction”) is recorded as “no or little effect”. Moreover, the “effect on HAdV-C5 binding to A549 cells (in words)” value (from here on “effect on HAdV-C5 binding”) in experiment [3] is listed as “no or little effect”. As for “bLfcin17-42: bovine lactoferricin 17-42, purchased from the Center for Food Technology (FKCRRWQWRMKKLGAPSITCVRRAFA; ends and bridges not checked; cysteine pairing not given here; UniProt P24627 36-61, looked up, fragment) [reference compound]”, the “effect on HAdV-C5 transduction” value in experiment [2] is listed as “no or little effect”. Moreover, in experiment [3], the “effect on HAdV-C5 binding” value was “no or little effect”. Consider “hLfcin18-42: human lactoferricin 18-42, solid-phase synthesis, cyclized in a two-step approach (KCFQWQRNMRKVRGPPVSCIKRDSP; not fully specified (bridges); also: cyclized in a two-step approach, kind and places not given here; UniProt P02788 37-61, looked up, fragment)”, for which the “effect on HAdV-C5 transduction” value in experiment [2] was “no or little effect”. Moreover, in experiment [3], the “effect on HAdV-C5 binding” value is “no or little effect”.
